≈ marks a conversion by molar mass, not a printed value. Where a SMILES comes first, the peptide text is derived from it. [ ]: non-standard residue; d: D form. The star is where a group is joined. Dmt = Cc1cc(O)cc(C)c1C[C@H](N)C(=O)O; Boc = CC(C)(C)OC(=O)*
Key:
Type in all cases: physicochemical
[1] = Stability and handling of the isolated zwitterionic form (statement); settings: solid isolated from CH3OH/H2O with Na2CO3
Method: Preparation of the Zwitterionic Form of Compound II
[drawing 5] • 1. The crude HCl salt is suspended in CH3OH/H2O (1/1, v/v) • 2. The suspension is heated to 45-50° C. • 3. After the clear solution is formed, an aqueous solution of Na2CO3 (1.2 eq.) is added. During the addition, the solid begins to precipitate. • 4. The suspension is stirred for 1 h at 45° C., and then cooled to 15° C. and stirred for an additional hour. • 5. The solid is isolated by filtration and dried to provide Compound II with high purity (99.4 area %) by HPLC.
Formation of zwitterionic compound led to high purity material that was stable, easily handled, and highly crystalline.

[2] = Preliminary single-solvent solubility, determined by HPLC (response curve)
Text: Preliminary Single-Solvent Solubility of Compound I: […]

[3] = Preliminary precipitation studies (MeOH/water); settings: aqueous with cosolvent or surfactant or cyclodextrin, Normal addition, 10 mL/g, 25° C.
Text: Preliminary Precipitation Studies (MeOH/Water) of Compound I: […]

[4] = In process precipitation results (MeOH/water); settings: aqueous with cosolvent or surfactant or cyclodextrin
Text: In Process Precipitation Results (MeOH/Water) of Compound I: […]

solubility ([2]; organic solvent or mixture, solvent EtOH (SDAG-7)) [µg/mL] | solubility ([2]; organic solvent or mixture, solvent MeOAc) [µg/mL] | solubility ([2]; organic solvent or mixture, solvent THF) [µg/mL] | solubility ([2]; organic solvent or mixture, solvent iPrOAc) [µg/mL] | solubility ([2]; solvent Water) [µg/mL] | solubility ([3]; Experiment 1, MeOH/Water 1:3) [µg/mL] | solubility ([3]; Experiment 2, MeOH/Water 1:5) [µg/mL] | solubility ([3]; Experiment 3, MeOH/Water 1:9) [µg/mL] | solubility ([3]; Experiment 4, MeOH/Water 1:19) [µg/mL] | solubility ([4]; Experiment 2447-41, MeOH/Water 1:9, 13 mL/g) [µg/mL] | solubility ([4]; Experiment 2447-47, MeOH/Water 1:5, 10 mL/g) [µg/mL] | Compound | Stability of material [1]
 |  |  |  |  |  |  |  |  |  |  | Cc1cc(O)cc(C)c1C[C@H](NC(=O)[C@@H](CCCNC(=N)N)NC(=O)OC(C)(C)C)C(=O)O [Compound II, Boc-D-Arg-DMT] (Boc-[dR]-[Dmt]-OH) | stable
155000 (≈ 394 mM) | 18200 (≈ 46.4 mM) | 84500 (≈ 215 mM) | 5100 (≈ 13 mM) | 4100 (≈ 10.4 mM) | 7000 (≈ 17.8 mM) | 5000 (≈ 12.7 mM) | 3600 (≈ 9.17 mM) | 2700 (≈ 6.88 mM) | 2500 (≈ 6.37 mM) | 4200 (≈ 10.7 mM) | CC(C)(C)OC(=O)NCCCC[C@H](N)C(=O)N[C@@H](Cc1ccccc1)C(N)=O [Compound I, L-Lys(Boc)-Phe-NH2] | 

Source: patent US10975118B2, “Crystalline dipeptides useful in the synthesis of elamipretide” (Stealth BioTherapeutics Corp., priority 2018, dated 2021)
